Experimental findings from patent publication US8304447B2, “2-acylaminopropoanol-type glucosylceramide synthase inhibitors” (Genzyme Corporation, priority 2007, dated 2012) are described below.

One assay has as its system GM3. In words: GM3 Elisa assay. Type of assay: cell-based. To be noted: 48 h, Table 1; B16-FO cells, 2 days incubation; read-out: IC50_uM_Mean. As to the method: B16-FO cells from ATCC (American Tissue Culture Collection) were grown in DMEM media (ATCC) with 10% Fetal Bovine Serum (Hyclone) and Pen/Step/Glutamine (Biowhittaker). 4000 cells per well were plated on collagen coated plates (BD) and allowed to attach for 6 hours in an incubator (37 degrees, 5% CO2). After 6 hours the compounds and controls were added to the wells, the plates mixed and returned to the incubator for 2 days. Day of assay the cells were fixed for 20 minutes with 1% formaldehyde and then washed with Tris Buffered Saline (TBS) 3 times, 150 μl of TBS was left in the wells and 50 μl of goat serum (Invitrogen) was added, the plates mixed and incubated for 1 hour at room temperature. The plates were flicked and the cells incubated with the monoclonal Antibody to GM3 (NeuAc) (Cosmo) for 45 minutes as room temperature. The plates were then washed 3 times with TBS, leaving 150 μl of TBS in the wells and Peroxidase AffinPure F (ab′) 2 frag Gt Anti-mouse IgM, μ Chain Specific (Jackson Immuno Research) was added in 50 μl, the plates mixed and incubated for 45 minutes at room temperature. The plates were washed 3 times with TBS, flicked and blotted and 100 μl of Quantablu (Pierce) was added to the wells and incubated for 1 hour then read on a Fluorometer at Ex 325 and Em 420. The data was then analyzed using standard programs.
Regarding `COc1ccc(C(=O)CCCCC(=O)N[C@H](CN2CCCC2)[C@H](O)c2ccc3c(c2)OCCO3)cc1` [Compound 141, N-((1R,2R)-1-(2,3-dihydrobenzo[β][1,4]dioxin-6-yl)-1-hydroxy-3-(pyrrolidin-1-yl)propan-2-yl)-6-(4-methoxyphenyl)-6-oxohexanamide], the IC50 is not above 100 nM. Still for that read-out and setting: for `COc1ccc(C(=O)CCCCCCC(=O)N[C@H](CN2CCCC2)[C@H](O)c2ccc3c(c2)OCCO3)cc1` [Compound 144, N-((1R,2R)-1-(2,3-dihydrobenzo[β][1,4]dioxin-6-yl)-1-hydroxy-3-(pyrrolidin-1-yl)propan-2-yl)-8-(4-methoxyphenyl)-8-oxooctanamide] the value was not above 100 nM. The same measure, in the same setting: the value for `COc1ccc(C(=O)CCC(=O)N[C@H](CN2CCCC2)[C@H](O)c2ccc3c(c2)OCCO3)cc1` [Compound 154, N-((1R,2R)-1-(2,3-dihydrobenzo[b][1,4]dioxin-6-yl)-1-hydroxy-3-(pyrrolidin-1-yl)propan-2-yl)-4-(4-methoxyphenyl)-4-oxobutanamide] was 100 to 1000 nM. Still for that read-out and setting: the value for `CC(C)(C)c1ccc(C(=O)CCCCC(=O)N[C@H](CN2CCCC2)[C@H](O)c2ccc3c(c2)OCCO3)cc1` [Compound 155, 6-(4-tert-butylphenyl)-N-((1R,2R)-1-(2,3-dihydrobenzo[β][1,4]dioxin-6-yl)-1-hydroxy-3-(pyrrolidin-1-yl)propan-2-yl)-6-oxohexanamide] was 100 to 1000 nM; that for `COc1ccc(C(=O)CCCCCC(=O)N[C@H](CN2CCCC2)[C@H](O)c2ccc3c(c2)OCCO3)cc1` [Compound 156, N-((1R,2R)-1-(2,3-dihydrobenzo[β][1,4]dioxin-6-yl)-1-hydroxy-3-(pyrrolidin-1-yl)propan-2-yl)-7-(4-methoxyphenyl)-7-oxoheptanamide] was not above 100 nM. Regarding `O=C(CCCCCC(=O)c1ccc(Cl)cc1)N[C@H](CN1CCCC1)[C@H](O)c1ccc2c(c1)OCCO2` [Compound 159, 7-(4-chlorophenyl)-N-((1R,2R)-1-(2,3-dihydrobenzo[β][1,4]dioxin-6-yl)-1-hydroxy-3-(pyrrolidin-1-yl)propan-2-yl)-7-oxoheptanamide], the IC50 is not above 100 nM. The same measure, in the same setting: for `CC(C)(C)c1ccc(C(=O)CCCCCC(=O)N[C@H](CN2CCCC2)[C@@H](O)c2ccc3c(c2)OCCO3)cc1` [Compound 160, 7-(4-tert-butylphenyl)-N-((1R,2R)-1-(2,3-dihydrobenzo[β][1,4]dioxin-6-yl)-1-hydroxy-3-(pyrrolidin-1-yl)propan-2-yl)-7-oxoheptanamide] the value was 100 to 1000 nM; for `CC(C)Oc1ccc(C(=O)CCC(=O)N[C@H](CN2CCCC2)[C@@H](O)c2ccc3c(c2)OCCO3)cc1` [Compound 162, N-((1R,2R)-1-(2,3-dihydrobenzo[β][1,4]dioxin-6-yl)-1-hydroxy-3-(pyrrolidin-1-yl)propan-2-yl)-4-(4-isopropoxyphenyl)-4-oxobutanamide], not above 100 nM. On the same count and under the same terms, for `CC(C)Oc1ccc(C(=O)CCCCC(=O)N[C@H](CN2CCCC2)[C@H](O)c2ccc3c(c2)OCCO3)cc1` [Compound 181, N-((1R,2R)-1-(2,3-dihydrobenzo[b][1,4]dioxin-6-yl)-1-hydroxy-3-(pyrrolidin-1-yl)propan-2-yl)-6-(4-isopropoxyphenyl)-6-oxohexanamide] the value was not above 100 nM; for `CC(C)CC(=O)c1ccc(OCCC(=O)N[C@H](CN2CCCC2)[C@H](O)c2ccc3c(c2)OCCO3)cc1` [Compound 187, N-((1R,2R)-1-(2,3-dihydrobenzo[β][1,4]dioxin-6-yl)-1-hydroxy-3-(pyrrolidin-1-yl)propan-2-yl)-3-(4-(3-methylbutanoyl)phenoxy)propanamide (2S,3S)-2,3-dihydroxysuccinate], 100 to 1000 nM. The same measure, in the same setting: for `CCc1ccc(OCCC(=O)N[C@H](CN2CCCC2)[C@H](O)c2ccc3c(c2)OCCO3)cc1` [Compound 188, N-((1R,2R)-1-(2,3-dihydrobenzo[b][1,4]dioxin-6-yl)-1-hydroxy-3-(pyrrolidin-1-yl)propan-2-yl)-3-(4-ethylphenoxy)propanamide (2R,3R)-2,3-dihydroxysuccinate] the value was 100 to 1000 nM. Consider `CCC(=O)c1ccc(OCCC(=O)N[C@H](CN2CCCC2)[C@H](O)c2ccc3c(c2)OCCO3)cc1` [Compound 189, N-((1R,2R)-1-(2,3-dihydrobenzo[b][1,4]dioxin-6-yl)-1-hydroxy-3-(pyrrolidin-1-yl)propan-2-yl)-3-(4-propionylphenoxy)propanamide (2R,3R)-2,3-dihydroxysuccinate], for which the IC50 lay within 100 to 1000 nM. Take `COc1ccc(C(=O)CCCC(=O)N[C@H](CN2CCCC2)[C@H](O)c2ccc3c(c2)OCCO3)cc1` [Compound 191, N-((1R,2R)-1-(2,3-dihydrobenzo[β][1,4]dioxin-6-yl)-1-hydroxy-3-(pyrrolidin-1-yl)propan-2-yl)-5-(4-methoxyphenyl)-5-oxopentanamide (2R,3R)-2,3-dihydroxysuccinate]: the IC50 was not above 100 nM. Same read-out and setting: for `CC(=O)CCc1ccc(OCCC(=O)N[C@H](CN2CCCC2)[C@H](O)c2ccc3c(c2)OCCO3)cc1` [Compound 193, N-((1R,2R)-1-(2,3-dihydrobenzo[b][1,4]dioxin-6-yl)-1-hydroxy-3-(pyrrolidin-1-yl)propan-2-yl)-3-(4-(3-oxobutyl)phenoxy)propanamide (2R,3R)-2,3-dihydroxysuccinate] the value was 100 to 1000 nM.

As to `COc1ccc(OCCCC(=O)N[C@H](CN2CCCC2)[C@H](O)c2ccc3c(c2)OCCO3)cc1` [Compound 197, N-((1R,2R)-1-(2,3-dihydrobenzo[β][1,4]dioxin-6-yl)-1-hydroxy-3-(pyrrolidin-1-yl)propan-2-yl)-4-(4-methoxyphenoxy)butanamide (2S,3S)-2,3-dihydroxysuccinate], the IC50 is not above 100 nM. The same measure, in the same setting: the value for `COCCc1ccc(OCCC(=O)N[C@H](CN2CCCC2)[C@H](O)c2ccc3c(c2)OCCO3)cc1` [Compound 202, N-((1R, R)-1-(2,3-dihydrobenzo[β][1,4]dioxin-6-yl)-1-hydroxy-3-(pyrrolidin-1-yl)propan-2-yl)-3-(4-(2-methoxyethyl)phenoxy)propanamide (2R, R)-2,3-dihydroxysuccinate] was 100 to 1000 nM.

The assay is the same for the next values; noted with them: 48 h, Table 2; B16-FO cells, 2 days incubation; read-out: IC50_uM_Mean.
Turning to `O=C(N[C@H](CN1CCCC1)[C@H](OC(=O)c1ccc(-c2ccccn2)s1)c1ccc2c(c1)OCCO2)c1ccc(-c2ccccn2)s1` [Compound 242], the IC50 lay within 3000 to 10000 nM. Still for that read-out and setting: the value for `CC(=O)O[C@H](c1ccc2c(c1)OCCO2)[C@@H](CN1CCCC1)NC(=O)NCc1ccccc1` [Compound 243] was not above 100 nM; that for `O=C(NCc1ccc(Cl)cc1)N[C@H](CN1CCCC1CN1CCCC1)[C@H](O)c1ccc2c(c1)OCCO2` (stereo partly shown) [Compound 244] was not above 100 nM.

Turning to `COc1ccc(CCC(=O)N[C@H](CN2CCCC2CN2CCCC2)[C@H](O)c2ccc3c(c2)OCCO3)cc1Cl` (stereo partly shown) [Compound 245], the IC50 lay in the range of 3000 to 10000 nM. On the same count and under the same terms, for `COc1ccc([C@@H](O)[C@@H](CN2CCCC2)NC(=O)CCOc2ccc(C)cc2)cc1` [Compound 247, N-((1R,2R)-1-hydroxy-1-(4-methoxyphenyl)-3-(pyrrolidin-1-yl)propan-2-yl)-3-(p-tolyloxy)propanamide] the value was not above 100 nM; for `COc1ccc([C@@H](OC(=O)CCOc2ccc(C)cc2)[C@@H](CN2CCCC2)NC(=O)CCOc2ccc(C)cc2)cc1` [Compound 248], 100 to 1000 nM; for `COc1ccc([C@@H](O)[C@@H](CN2CCCC2)NC(=O)Nc2ccc(OC(F)(F)F)cc2)cc1` [Compound 249], 1000 to 3000 nM. On the same count and under the same terms, the value for `COc1ccc([C@@H](OC(=O)Cc2ccc(C(F)(F)F)cc2)[C@@H](CN2CCCC2)NC(=O)Cc2ccc(C(F)(F)F)cc2)cc1` [Compound 250] was 100 to 1000 nM. `COc1ccc([C@@H](O)[C@@H](CN2CCCC2)NC(=O)Cc2ccc(C(F)(F)F)cc2)cc1` [Compound 251, N-((1R,2R)-1-hydroxy-1-(4-methoxyphenyl)-3-(pyrrolidin-1-yl)propan-2-yl)-2-(4-(trifluoromethyl)phenyl)acetamide]: the IC50 was in the range of 100 to 1000 nM. With `Cc1ccc(OCCC(=O)N[C@H](CN2CCCC2)[C@H](OC(=O)CCOc2ccc(C)cc2)c2ccc3c(c2)OCCO3)cc1` [Compound 252], the IC50 is 100 to 1000 nM. For the compound `O=C(CCCc1nc(-c2ccc(Cl)cc2)no1)N[C@H](CN1CCCC1)[C@H](OC(=O)CCCc1nc(-c2ccc(Cl)cc2)no1)c1ccc2c(c1)OCCO2` [Compound 253], the IC50 lay in the range of 100 to 1000 nM. Same read-out and setting: the value for `O=C(CCCc1nc(-c2cccs2)no1)N[C@H](CN1CCCC1)[C@H](OC(=O)CCCc1nc(-c2cccs2)no1)c1ccc2c(c1)OCCO2` [Compound 254] was 100 to 1000 nM.

On to `O=C(Cc1csc(-c2cccc(C(F)(F)F)c2)n1)N[C@H](CN1CCCC1)[C@H](OC(=O)Cc1csc(-c2cccc(C(F)(F)F)c2)n1)c1ccc2c(c1)OCCO2` [Compound 255], for which the IC50 was 1000 to 3000 nM.

The same assay, now with this note: Table 1; B16-FO cells, 2 days incubation; read-out: IC50_uM_Mean.
Consider `O=C(CCC(=O)c1ccc(C(F)(F)F)cc1)N[C@H](CN1CCCC1)[C@H](O)c1ccc2c(c1)OCCO2` [Compound 176, N-((1R,2R)-1-(2,3-dihydrobenzo[β][1,4]dioxin-6-yl)-1-hydroxy-3-(pyrrolidin-1-yl)propan-2-yl)-4-oxo-4-(4-(trifluoromethyl)phenyl)butanamide (2S,3S)-2,3-dihydroxysuccinate], for which the IC50 was not above 100 nM.

The same assay, now with this note: Table 2; B16-FO cells, 2 days incubation; read-out: IC50_uM_Mean.
Regarding `COc1ccc([C@@H](O)[C@@H](CN2CCCC2)NC(=O)OCc2ccccc2)cc1` [Compound 246], the IC50 was 1000 to 3000 nM.
